Laboratory results published in ChEMBL document CHEMBL5104196, “Discovery of Novel, Potent, and Selective Small-Molecule Menin-Mixed Lineage Leukemia Interaction Inhibitors through Attempting Introduction of Hydrophilic Groups” (J Med Chem, 2022).
The source made the active and inactive calls. The rule behind the calls is not given here.

Assays:
[1] = Metabolic stability in Sprague-Dawley rat liver assessed as intrinsic clearance measured upto 60 min by UPLC-MS/MS analysis; assay type: ADME, tissue-based; settings: read-out: CLH
[2] = species on record: Homo sapiens; test: Inhibition of AGC (unknown origin) at 1 uM in presence of ATP at Km concentration by Mobility shift assay relative to control
[3] = Total clearance in Sprague-Dawley rat at 15 mg/kg, po; assay type: ADME, organism-based; settings: in vivo
[4] = AUC (0 to t) in Sprague-Dawley rat at 15 mg/kg, po; assay type: ADME, organism-based; parameters: dose 15 mg/kg, route po; settings: in vivo
[5] = Metabolic stability in Beagle dog liver microsome assessed as compound remaining measured after 60 min by UPLC-MS/MS analysis; assay type: ADME, Canis lupus familiaris; settings: liver microsomes, read-out: Stability
[6] = system: MV4-11; test: Induction of cell cycle arrest in human MV4-11 cells assessed as accumulation at G2/M phase at 0.1 to 10 uM incubated for 24 hrs by PI/RNase staining based flow cytometry analysis; assay type: functional; settings: dose 0.1-10 µM
[7] = Cmax in Sprague-Dawley rat at 15 mg/kg, po; assay type: ADME, organism-based; parameters: dose 15 mg/kg, route po; settings: in vivo
[8] = system: MV4-11; test: Reversible differentiation arrest in human MV4-11 cells at 0.1 to 10 uM measured after 7 days by flow cytometric analysis; assay type: functional, cell-based; settings: dose 0.1-10 µM, time 7.0 day
[9] = Metabolic stability in Beagle dog liver microsome assessed as intrinsic clearance measured upto 60 min by UPLC-MS/MS analysis; assay type: ADME, Canis lupus familiaris; settings: microsomes, 1 h
[10] = species on record: Homo sapiens; test: Inhibition of GAMK (unknown origin) at 1 uM in presence of ATP at Km concentration by Mobility shift assay relative to control
[11] = Oral bioavailability in Sprague-Dawley rat at 15 mg/kg; assay type: ADME, organism-based; settings: in vivo
[12] = Metabolic stability in Sprague-Dawley rat liver microsome assessed as intrinsic clearance measured upto 60 min by UPLC-MS/MS analysis; assay type: ADME; settings: microsomes, 1 h
[13] = system: MV4-11; test: Induction of apoptosis in human MV4-11 cells incubated for 24 hrs by annexinV/PI staining based flow cytometry analysis; assay type: functional, cell-based; settings: dose 0.1-10 µM, DDE = dose-dependent effect
[14] = system: MV4-11; test: Antiproliferative activity against human MV4-11 cells harboring MLL-AF4 assessed as cell growth inhibition measured for 72 hrs by MTT assay; assay type: functional, cell-based; settings: MV4-11, 72 h
[15] = MRT in Sprague-Dawley rat at 15 mg/kg, po; assay type: ADME, organism-based; settings: in vivo

- CLint scaled [1]: 17.5 mL/min/kg
- inhibition [2]: < 25%
- CL/F [3]: 179 mL/min/kg
- AUC(0-t) [4]: 864 ng·h/mL
- remaining at 1 h [5]: 65%
- Cmax [7]: 56.7 ng/mL
- CLint [9]: 13.9 µL/min/mg
- inhibition [10]: < 25%
- bioavailability [11]: 16.9%
- CLint [12]: 9.7 µL/min/mg
- IC50 [14]: 300 nM
- MRT [15]: 12 h
Compound: CN(C)CCOc1ccc2ncnc(NC3CCN(CC4CN(c5ccc(S(=O)(=O)C6CC6)cc5)C4)CC3)c2n1
- Activity [6]: Active
- Activity [8]: Active
- Activity [13]: Dde
